# In US11759455B2, “Substituted 1H-imidazo[4,5-b]pyridin-2(3H)-ones and their use as GLUN2B receptor modulators” (JANSSEN PHARMACEUTICA NV, priority 2016, dated 2023):
# Biological target: T1, human GluN1/GluN2B NMDA receptors (Homo sapiens, UniProt Q13224)
# T1 construct: expressed in transfected cells
# Test: Cell-based calcium flux (FLIPR) assay on cloned human NR1/NR2B ion channels expressed in mammalian cells (standard and HTS buffer variants);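 also: stable Tet-On inducible cell line, Ca2+ influx triggered by glutamate at about EC40 plus 10 µM glycine, fluorescent dye read-out over 5 min, normalized to control wells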
# Conditions: standard assay buffer (0.5 mM MgCl2 in dye loading buffer; 137 mM NaCl, 4 mM KCl in assay buffer), human GluN1/GluN2B, read-out: NR2B IC50 (μM) standard assay
# T1 sequence (Q13224 27-1484, other chains not shown): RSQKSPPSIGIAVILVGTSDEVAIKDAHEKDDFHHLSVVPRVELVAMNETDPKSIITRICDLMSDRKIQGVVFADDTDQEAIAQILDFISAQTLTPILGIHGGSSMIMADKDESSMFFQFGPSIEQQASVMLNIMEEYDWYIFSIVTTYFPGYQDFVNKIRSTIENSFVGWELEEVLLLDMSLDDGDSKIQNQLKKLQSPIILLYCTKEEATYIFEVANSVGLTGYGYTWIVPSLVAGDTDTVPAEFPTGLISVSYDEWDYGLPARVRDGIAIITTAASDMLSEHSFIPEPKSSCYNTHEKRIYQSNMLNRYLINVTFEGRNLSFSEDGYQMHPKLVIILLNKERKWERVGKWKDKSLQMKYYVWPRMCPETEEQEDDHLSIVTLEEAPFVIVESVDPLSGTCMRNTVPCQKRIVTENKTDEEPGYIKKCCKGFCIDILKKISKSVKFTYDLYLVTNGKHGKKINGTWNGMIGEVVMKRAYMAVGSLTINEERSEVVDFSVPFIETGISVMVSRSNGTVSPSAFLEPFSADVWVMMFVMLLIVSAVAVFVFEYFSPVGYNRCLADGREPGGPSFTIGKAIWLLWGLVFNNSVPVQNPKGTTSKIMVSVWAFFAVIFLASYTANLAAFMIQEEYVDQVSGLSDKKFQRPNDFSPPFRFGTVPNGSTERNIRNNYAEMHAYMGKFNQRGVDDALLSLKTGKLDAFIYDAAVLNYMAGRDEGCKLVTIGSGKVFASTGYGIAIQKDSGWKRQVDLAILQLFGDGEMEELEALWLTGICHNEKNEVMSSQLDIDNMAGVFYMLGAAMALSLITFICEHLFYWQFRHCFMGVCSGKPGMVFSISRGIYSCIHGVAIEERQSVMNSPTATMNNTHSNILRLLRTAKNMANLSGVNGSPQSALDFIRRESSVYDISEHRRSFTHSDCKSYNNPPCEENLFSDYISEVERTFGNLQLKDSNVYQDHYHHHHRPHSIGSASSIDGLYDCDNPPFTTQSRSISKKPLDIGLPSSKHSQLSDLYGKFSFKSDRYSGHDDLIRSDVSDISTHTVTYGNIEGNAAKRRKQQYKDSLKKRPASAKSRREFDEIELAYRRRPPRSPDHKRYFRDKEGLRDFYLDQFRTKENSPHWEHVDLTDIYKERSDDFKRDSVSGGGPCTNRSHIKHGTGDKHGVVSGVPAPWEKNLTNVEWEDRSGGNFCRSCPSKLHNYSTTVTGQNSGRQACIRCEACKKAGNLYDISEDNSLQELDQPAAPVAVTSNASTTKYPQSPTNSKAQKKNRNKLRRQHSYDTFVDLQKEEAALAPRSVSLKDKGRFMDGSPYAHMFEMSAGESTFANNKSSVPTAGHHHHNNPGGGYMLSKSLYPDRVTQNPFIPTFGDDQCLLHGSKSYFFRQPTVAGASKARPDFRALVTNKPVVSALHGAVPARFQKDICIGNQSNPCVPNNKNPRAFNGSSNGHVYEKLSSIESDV
row,Structure (SMILES),IC50 [µM]
1,"Cn1c(=O)n(Cc2cccnn2)c2cc(-c3ccc(F)c(C(F)F)c3)cnc21 [Example 541, 6-[3-(Difluoromethyl)-4-fluoro-phenyl]-3-methyl-1-(pyridazin-3-ylmethyl)imidazo[4,5-b]pyridin-2-one]",0.022
2,"Cn1c(=O)n(Cc2cccnn2)c2cc(-c3ccc(F)c(OC(F)F)c3)cnc21 [Example 542, 6-[3-(Difluoromethoxy)-4-fluoro-phenyl]-3-methyl-1-(pyridazin-3-ylmethyl)imidazo[4,5-b]pyridin-2-one]",0.016
3,"Cn1c(=O)n(Cc2cccnn2)c2cc(-c3ccc(Cl)c(OC(F)F)c3)cnc21 [Example 543, 6-[4-Chloro-3-(difluoromethoxy)phenyl]-3-methyl-1-(pyridazin-3-ylmethyl)imidazo[4,5-b]pyridin-2-one]",0.028
4,"Cn1c(=O)n(Cc2cncc(F)c2)c2cc(-c3ccc(Cl)c(OC(F)F)c3)cnc21 [Example 544, 6-[4-Chloro-3-(difluoromethoxy)phenyl]-1-[(5-fluoro-3-pyridyl)methyl]-3-methyl-imidazo[4,5-b]pyridin-2-one]",0.09
5,"Cn1c(=O)n(Cc2csnn2)c2cc(-c3ccc(F)c(F)c3)cnc21 [Example 545, 6-(3,4-Difluorophenyl)-3-methyl-1-(thiadiazol-4-ylmethyl)imidazo[4,5-b]pyridin-2-one]",0.512
6,"Cn1c(=O)n(Cc2cncc(F)c2)c2cc(-c3ccc(F)c(C(F)F)c3)cnc21 [Example 546, 6-[3-(Difluoromethyl)-4-fluoro-phenyl]-1-[(5-fluoro-3-pyridyl)methyl]-3-methyl-imidazo[4,5-b]pyridin-2-one]",0.024
7,"Cn1c(=O)n(Cc2cncc(F)c2)c2cc(-c3ccc(F)c(OC(F)F)c3)cnc21 [Example 547, 6-[3-(Difluoromethoxy)-4-fluoro-phenyl]-1-[(5-fluoro-3-pyridyl)methyl]-3-methyl-imidazo[4,5-b]pyridin-2-one]",0.036
8,"Cn1c(=O)n(Cc2csnn2)c2cc(-c3cccc(C(F)(F)F)c3)cnc21 [Example 548, 3-Methyl-1-(thiadiazol-4-ylmethyl)-6-[3-(trifluoromethyl)phenyl]imidazo[4,5-b]pyridin-2-one]",0.185
9,"Cn1cc(Cn2c(=O)n(C)c3ncc(-c4ccc(F)c(F)c4)cc32)nn1 [Example 549, 6-(3,4-Difluorophenyl)-3-methyl-1-[(1-methyltriazol-4-yl)methyl]imidazo[4,5-b]pyridin-2-one]",0.467
10,"Cn1cc(Cn2c(=O)n(C)c3ncc(-c4ccc(F)c(F)c4)cc32)cn1 [Example 550, 6-(3,4-Difluorophenyl)-3-methyl-1-[(1-methylpyrazol-4-yl)methyl]imidazo[4,5-b]pyridin-2-one]",0.697
11,"Cn1cc(Cn2c(=O)n(C)c3ncc(-c4cccc(C(F)(F)F)c4)cc32)cn1 [Example 551, 3-Methyl-1-[(1-methylpyrazol-4-yl)methyl]-6-[3-(trifluoromethyl)phenyl]imidazo[4,5-b]pyridin-2-one]",0.19
12,"Cn1cc(Cn2c(=O)n(C)c3ncc(-c4cccc(C(F)(F)F)c4)cc32)nn1 [Example 552, 3-Methyl-1-[(1-methyltriazol-4-yl)methyl]-6-[3-(trifluoromethyl)phenyl]imidazo[4,5-b]pyridin-2-one]",0.13
13,"Cc1ccc(-c2cnc3c(c2)n(Cc2cn(C)nn2)c(=O)n3C)s1 [Example 553, 3-Methyl-6-(5-methyl-2-thienyl)-1-[(1-methyltriazol-4-yl)methyl]imidazo[4,5-b]pyridin-2-one]",0.726
14,"Cc1nnc(Cn2c(=O)n(C)c3ncc(-c4ccc(C)s4)cc32)o1 [Example 554, 3-Methyl-1-[(5-methyl-1,3,4-oxadiazol-2-yl)methyl]-6-(5-methyl-2-thienyl)imidazo[4,5-b]pyridin-2-one]",0.533
15,"Cc1ccc(-c2cnc3c(c2)n(Cc2cnn(C)c2)c(=O)n3C)s1 [Example 555, 3-Methyl-1-[(1-methylpyrazol-4-yl)methyl]-6-(5-methyl-2-thienyl)imidazo[4,5-b]pyridin-2-one]",1.31
16,"Cc1noc(Cn2c(=O)n(C)c3ncc(-c4ccc(C)s4)cc32)n1 [Example 557, 3-Methyl-1-[(3-methyl-1,2,4-oxadiazol-5-yl)methyl]-6-(5-methyl-2-thienyl)imidazo[4,5-b]pyridin-2-one]",0.671
17,"Cc1cc(Cn2c(=O)n(C)c3ncc(-c4ccc(C)s4)cc32)no1 [Example 558, 3-Methyl-1-[(5-methylisoxazol-3-yl)methyl]-6-(5-methyl-2-thienyl)imidazo[4,5-b]pyridin-2-one]",0.216
18,"Cn1cc(Cn2c(=O)n(C)c3ncc(-c4ccc(C(F)F)s4)cc32)nn1 [Example 559, 6-[5-(Difluoromethyl)-2-thienyl]-3-methyl-1-[(1-methyltriazol-4-yl)methyl]imidazo[4,5-b]pyridin-2-one]",0.28
19,"Cc1nnc(Cn2c(=O)n(C)c3ncc(-c4ccc(C(F)F)s4)cc32)o1 [Example 560, 6-[5-(Difluoromethyl)-2-thienyl]-3-methyl-1-[(5-methyl-1,3,4-oxadiazol-2-yl)methyl]imidazo[4,5-b]pyridin-2-one]",0.304
20,"Cn1cc(Cn2c(=O)n(C)c3ncc(-c4ccc(C(F)F)s4)cc32)cn1 [Example 561, 6-[5-(Difluoromethyl)-2-thienyl]-3-methyl-1-[(1-methylpyrazol-4-yl)methyl]imidazo[4,5-b]pyridin-2-one]",0.354
21,"Cn1c(=O)n(Cc2csnn2)c2cc(-c3ccc(C(F)F)s3)cnc21 [Example 562, 6-[5-(Difluoromethyl)-2-thienyl]-3-methyl-1-(thiadiazol-4-ylmethyl)imidazo[4,5-b]pyridin-2-one]",0.166
22,"Cc1noc(Cn2c(=O)n(C)c3ncc(-c4ccc(C(F)F)s4)cc32)n1 [Example 563, 6-[5-(Difluoromethyl)-2-thienyl]-3-methyl-1-[(3-methyl-1,2,4-oxadiazol-5-yl)methyl]imidazo[4,5-b]pyridin-2-one]",0.316
23,"Cc1cc(Cn2c(=O)n(C)c3ncc(-c4ccc(C(F)F)s4)cc32)no1 [Example 564, 6-[5-(Difluoromethyl)-2-thienyl]-3-methyl-1-[(5-methylisoxazol-3-yl)methyl]imidazo[4,5-b]pyridin-2-one]",0.087

# Further lines, results first:
row,IC50 [µM],Structure (SMILES)
1,0.034,"Cc1cc(Cn2c(=O)[nH]c3ncc(-c4ccc(F)cc4C)cc32)no1 [Example 522, 6-(4-Fluoro-2-methyl-phenyl)-1-[(5-methylisoxazol-3-yl)methyl]-3H-imidazo[4,5-b]pyridin-2-one]"
2,0.133,"Cc1cc(Cn2c(=O)[nH]c3ncc(-c4cc(F)cc(F)c4)cc32)no1 [Example 523, 6-(3,5-Difluorophenyl)-1-[(5-methylisoxazol-3-yl)methyl]-3H-imidazo[4,5-b]pyridin-2-one]"
3,0.862,"Cn1c(=O)n(CC(=O)NCCCCl)c2cc(-c3ccc(C(F)(F)F)s3)cnc21 [Example 532, N-(3-Chloropropyl)-2-[3-methyl-2-oxo-6-[5-(trifluoromethyl)-2-thienyl]imidazo[4,5-b]pyridin-1-yl]acetamide]"
4,0.025,"CN(C)C(=O)Cn1c(=O)n(C)c2ncc(-c3ccc(F)c(C(F)F)c3)cc21 [Example 533, 2-[6-[3-(Difluoromethyl)-4-fluoro-phenyl]-3-methyl-2-oxo-imidazo[4,5-b]pyridin-1-yl]-N,N-dimethyl-acetamide]"
5,0.036,"O=C(Cn1c(=O)n(CF)c2ncc(-c3ccc(C(F)(F)F)s3)cc21)N1CCC1 [Example 534, 1-[2-(Azetidin-1-yl)-2-oxo-ethyl]-3-(fluoromethyl)-6-[5-(trifluoromethyl)-2-thienyl]imidazo[4,5-b]pyridin-2-one]"
6,0.106,"O=C(Cn1c(=O)n(CCF)c2ncc(-c3ccc(C(F)(F)F)s3)cc21)N1CCC1 [Example 535, 1-[2-(Azetidin-1-yl)-2-oxo-ethyl]-3-(2-fluoroethyl)-6-[5-(trifluoromethyl)-2-thienyl]imidazo[4,5-b]pyridin-2-one]"
7,0.163,"O=C(Cn1c(=O)[nH]c2ncc(-c3cccc(C(F)(F)F)c3)cc21)N1CC(CCF)C1 [Example 536, 1-[2-[3-(2-Fluoroethyl)azetidin-1-yl]-2-oxo-ethyl]-6-[3-(trifluoromethyl)phenyl]-3H-imidazo[4,5-b]pyridin-2-one]"
8,0.273,"CCC(=O)Cn1c(=O)[nH]c2ncc(-c3cccc(F)n3)cc21 [Example 537, 6-(6-Fluoro-2-pyridyl)-1-(2-oxobutyl)-3H-imidazo[4,5-b]pyridin-2-one]"
9,0.24,"O=C(Cn1c(=O)[nH]c2ncc(-c3ccc(OCCF)c(C(F)(F)F)c3)cc21)N1CCC1 [Example 538, 1-[2-(Azetidin-1-yl)-2-oxo-ethyl]-6-[4-(2-fluoroethoxy)-3-(trifluoromethyl)phenyl]-3H-imidazo[4,5-b]pyridin-2-one]"
10,0.333,"O=C(Cn1c(=O)[nH]c2ncc(-c3cc(OCCF)cc(C(F)(F)F)c3)cc21)N1CCC1 [Example 539, 1-[2-(Azetidin-1-yl)-2-oxo-ethyl]-6-[3-(2-fluoroethoxy)-5-(trifluoromethyl)phenyl]-3H-imidazo[4,5-b]pyridin-2-one]"
11,0.363,"Cc1ccc(-c2cnc3c(c2)n(Cc2csnn2)c(=O)n3C)s1 [Example 556, 3-Methyl-6-(5-methyl-2-thienyl)-1-(thiadiazol-4-ylmethyl)imidazo[4,5-b]pyridin-2-one]"
12,0.374,"Cn1cc(Cn2c(=O)n(C)c3ncc(-c4ccc(C(F)(F)F)s4)cc32)cn1 [Example 565, 3-Methyl-1-[(1-methylpyrazol-4-yl)methyl]-6-[5-(trifluoromethyl)-2-thienyl]imidazo[4,5-b]pyridin-2-one]"
13,0.349,"Cn1cc(Cn2c(=O)n(C)c3ncc(-c4ccc(C(F)(F)F)s4)cc32)nn1 [Example 566, 3-Methyl-1-[(1-methyltriazol-4-yl)methyl]-6-[5-(trifluoromethyl)-2-thienyl]imidazo[4,5-b]pyridin-2-one]"
14,0.146,"Cc1nnc(Cn2c(=O)n(C)c3ncc(-c4ccc(C(F)(F)F)s4)cc32)o1 [Example 567, 3-Methyl-1-[(5-methyl-1,3,4-oxadiazol-2-yl)methyl]-6-[5-(trifluoromethyl)-2-thienyl]imidazo[4,5-b]pyridin-2-one]"
